# Reference: US20080299140A1, “Immunogenic Composition and Peptide Sequences for Prevention and Treatment of an Hsv Condition” (priority 2002, published 2008)
# Residue numbers refer to the chain shown, from its start. Where two headings read alike, the source gives them in different places.
# Tests used:
# [1] = target: T1, DR1=HLA-DR(α1*0101,α1*0101) (Homo sapiens, UniProt P01903+P01911, A100R/D57E/F55L/F60I/F76Y/I96L/L162R/M171V/P40L/Q125E/R42F/V115G/Y59C); assay: biochemical; type: binding
# T1 construct: endogenous in cells; host or cells: EBV homozygous human B cell line
# [2] = target: T2, DR3=HLA-DR(α1*0101,α1*0301) (Homo sapiens, UniProt P01903+P01911, A100K/A102G/A103R/A169T/F55Y/I96L/K41T/L162R/M171V/P40S/Q125H/Q178H/Q39Y/R42S/S66N/T106N/T262R/W38E/Y61H); assay: HLA-DR specific binding assay, DR3
# T2 construct: endogenous in cells; host or cells: STEILIN (EBV homozygous B cell line)
# [3] = target: T3, DR4=HLA-DR(α1*0101,α1*0401) (Homo sapiens, UniProt P01903+P01911, A100K/A169T/F76Y/I96L/K127E/L162R/M171V/N62H/P40V/Q125Y/R42H/S133A/S149N/S66Y/V115G/V209L/W38E); assay: biochemical; type: binding
# T3 construct: endogenous in cells; host or cells: BOLETH (EBV homozygous B cell line)
# [4] = target: T4, DR7=HLA-DR(α1*0101,α1*0701) (Homo sapiens, UniProt P01903+P01911, A100R/A102G/A103Q/D57E/D86V/E43K/F76Y/K127E/L162R/M171V/P40G/Q125H/Q99D/R33Q/R42Y/R54Q/S133A/S66F/T210M/V115G/Y107V/Y59L/Y89S); assay: HLA-DR specific binding assay, DR7
# T4 construct: endogenous in cells; host or cells: EBV homozygous human B cell line
# [5] = target: T5, DR11=HLA-DR(α1*0101,α1*1101) (Homo sapiens, UniProt P01903+P01911, A100R/A169T/A87E/I96F/K41T/L162R/M171V/P40S/Q125H/Q178H/Q39Y/Q99D/R42S/S66Y/T262R/V115G/W38E); assay: biochemical; type: binding
# T5 construct: endogenous in cells; host or cells: SWEIG (EBV homozygous B cell line)
# [6] = target: T6, DR13=HLA-DR(α1*0101,α1*1301) (Homo sapiens, UniProt P01903+P01911, A100E/A169T/K41T/L162R/M171V/P40S/Q125H/Q178H/Q39Y/Q99D/R42S/S66N/T262R/W38E/Y61H); assay: HLA-DR specific binding assay, DR13
# T6 construct: endogenous in cells; host or cells: 0206AD (EBV homozygous B cell line)
# [7] = target: T7, DR15=HLA-DR(α1*0101,α1*1501) (Homo sapiens, UniProt P01903+P01911); assay: HLA-DR specific binding assay, DR15
# T7 construct: endogenous in cells; host or cells: EBV homozygous human B cell line
# [8] = target: T8, DRB3=HLA-DR(α1*0101,α3*0101) (Homo sapiens, UniProt P01903+P79483); assay: HLA-DR specific binding assay, DRB3 (DR52)
# T8 construct: endogenous in cells; host or cells: STEILIN or 0206AD (both typed DRB3*0101)
# T8 sequence (P79483 30-266, other chains not shown): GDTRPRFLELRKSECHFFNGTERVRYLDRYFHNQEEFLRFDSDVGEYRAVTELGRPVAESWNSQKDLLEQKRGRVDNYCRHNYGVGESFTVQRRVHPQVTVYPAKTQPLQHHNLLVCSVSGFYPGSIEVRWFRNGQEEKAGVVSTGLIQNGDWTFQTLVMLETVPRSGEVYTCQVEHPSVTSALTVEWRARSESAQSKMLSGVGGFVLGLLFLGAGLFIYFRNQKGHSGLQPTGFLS
# [9] = target: T9, DRB4=HLA-DR(α1*0101,α4*0101) (Homo sapiens, UniProt P01903+P13762, G164S); assay: HLA-DR specific binding assay, DRB4 (DR53)
# T9 construct: endogenous in cells
# [10] = target: T10, DRB5=HLA-DR(α1*0101,α5*0101) (Homo sapiens, UniProt P01903+Q30154); assay: biochemical; type: binding; details: Table V; […]; read-out: IC50 DRB5
# T10 construct: endogenous in cells; host or cells: EBV homozygous human B cell line
# T10 sequence (Q30154 30-266, other chains not shown): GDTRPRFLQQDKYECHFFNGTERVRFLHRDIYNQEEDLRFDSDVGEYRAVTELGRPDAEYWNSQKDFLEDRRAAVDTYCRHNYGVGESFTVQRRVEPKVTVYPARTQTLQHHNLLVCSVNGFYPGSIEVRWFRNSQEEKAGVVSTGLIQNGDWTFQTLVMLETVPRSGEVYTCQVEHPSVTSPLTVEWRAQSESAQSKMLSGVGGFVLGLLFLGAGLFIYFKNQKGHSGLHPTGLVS
# [11] = target: T11, DP401=HLA-DP(α1*0101,α1*0401) (Homo sapiens, UniProt P04440+P20036); assay: biochemical; type: binding
# T11 sequence (P20036 32-260 limits assumed): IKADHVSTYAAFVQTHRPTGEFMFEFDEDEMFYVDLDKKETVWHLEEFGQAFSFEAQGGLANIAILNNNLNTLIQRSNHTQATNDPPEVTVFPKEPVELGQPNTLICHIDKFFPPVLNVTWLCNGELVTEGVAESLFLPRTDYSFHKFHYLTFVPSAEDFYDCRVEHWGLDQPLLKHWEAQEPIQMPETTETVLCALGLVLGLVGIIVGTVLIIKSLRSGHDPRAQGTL
# T11 sequence (P04440 30-258): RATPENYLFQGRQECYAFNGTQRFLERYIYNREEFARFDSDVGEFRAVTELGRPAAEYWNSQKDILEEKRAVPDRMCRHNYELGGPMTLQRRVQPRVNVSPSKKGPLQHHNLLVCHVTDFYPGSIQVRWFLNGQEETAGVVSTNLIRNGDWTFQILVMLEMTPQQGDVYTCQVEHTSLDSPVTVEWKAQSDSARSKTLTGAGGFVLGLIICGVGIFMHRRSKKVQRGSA
# [12] = target: T12, DP402 DP (α1*0101, α1*0402) (Homo sapiens, UniProt P04440+P20036, A65V/A84D/A85E/L207M); assay: biochemical; type: binding
# T12 sequence (P20036 29-260): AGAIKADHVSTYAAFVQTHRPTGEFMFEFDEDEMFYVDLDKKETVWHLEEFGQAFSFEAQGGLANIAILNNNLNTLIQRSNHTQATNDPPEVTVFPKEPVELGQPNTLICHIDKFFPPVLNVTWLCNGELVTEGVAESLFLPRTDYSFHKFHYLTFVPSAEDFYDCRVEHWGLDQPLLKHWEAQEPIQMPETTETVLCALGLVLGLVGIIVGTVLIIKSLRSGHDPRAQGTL
# T12 sequence (P04440 30-258 A65V/A84D/A85E): T11 sequence (P04440 30-258) with A36V, A55D, A56E
# [13] = system: HLA-DR and HLA-DP molecules; assay: MHC class II binding assays, panel of twelve HLA class II molecules (number of alleles bound); details: number of the twelve class II MHC alleles bound; title: Threshold 600 nM/5 alleles
# [14] = Table V, […], read-out: IC50 DR1
# [15] = […], Class II MHC allele DR1, read-out: IC50, DR1
# [16] = IC50, DR3, Class II MHC allele DR3
# [17] = Class II MHC allele DR4, read-out: IC50, DR4
# [18] = Table V, […], read-out: IC50 DR4
# [19] = Class II MHC allele DR11, read-out: IC50, DR11
# [20] = Table V, […], read-out: IC50 DR11
# [21] = IC50, DRD3, Class II MHC allele DRD3 (so in the source)
SMILES,"IC50 [1, 14] [nM]","IC50 [1, 15] [nM]","IC50 [2, 16] [nM]","IC50 ([2]; IC50 DR3, Table V, […]) [nM]","IC50 [3, 17] [nM]","IC50 [3, 18] [nM]",IC50 [4] [nM],"IC50 [5, 19] [nM]","IC50 [5, 20] [nM]",IC50 [6] [nM],IC50 [7] [nM],"IC50 [8, 21] [nM]","IC50 ([8]; IC50 DRB3, Table V, […]) [nM]",IC50 [9] [nM],IC50 [10] [nM],IC50 ([11]; Class II MHC allele DP401) [nM],"IC50 ([11]; Table V, […]) [nM]",IC50 ([12]; Class II MHC allele DP402) [nM],"IC50 ([12]; Table V, […]) [nM]",Range [13],further results
CSCC[C@H](NC(=O)[C@H](CCCCN)NC(=O)[C@H](CC(C)C)NC(=O)[C@H](CO)NC(=O)[C@H](C)NC(=O)[C@H](CC(=O)O)NC(=O)[C@@H](NC(=O)[C@H](CC(C)C)NC(=O)[C@H](C)NC(=O)[C@H](Cc1ccc(O)cc1)NC(=O)[C@@H](N)CCCCN)C(C)C)C(=O)N[C@@H](C)C(=O)N[C@@H](CC(=O)O)C(=O)N1CCC[C@H]1C(=O)N[C@@H](CC(N)=O)C(=O)N[C@@H](CCCNC(=N)N)C(=O)N[C@@H](Cc1ccccc1)C(=O)N[C@@H](CCCNC(=N)N)C(=O)NCC(=O)N[C@@H](CCCCN)C(=O)N[C@@H](CC(=O)O)C(=O)N[C@@H](CC(C)C)C(=O)N1CCC[C@H]1C(=O)O [HSV 29],1230,1230,120,120,82,82,894,5250,5250,> 100000,24500,1400,1400,52500,8,17500,17500,1630,1630,3,"IC50 ([6]; read-out: IC50, DR13, Class II MHC allele DR13): > 100000 nM"
CC[C@H](C)[C@H](N)C(=O)N[C@H](C(=O)N[C@@H](CCC(N)=O)C(=O)N[C@@H](Cc1ccccc1)C(=O)N[C@H](C(=O)N[C@@H](CC(C)C)C(=O)N[C@@H](CCC(=O)O)C(=O)N[C@@H](Cc1c[nH]cn1)C(=O)N[C@@H](CCCNC(=N)N)C(=O)N[C@@H](C)C(=O)N[C@@H](CCCCN)C(=O)NCC(=O)N[C@@H](CO)C(=O)N[C@@H](CS)C(=O)N[C@@H](CCCCN)C(=O)N[C@@H](Cc1ccc(O)cc1)C(=O)N[C@@H](C)C(=O)N[C@@H](CC(C)C)C(=O)N1CCC[C@H]1C(=O)N[C@@H](CC(C)C)C(=O)N[C@@H](CCCNC(=N)N)C(=O)N[C@H](C(=O)N1CCC[C@H]1C(=O)N1CCC[C@H]1C(=O)N[C@@H](CO)C(=O)N[C@@H](C)C(=O)N[C@@H](CS)C(=O)N[C@@H](CC(C)C)C(=O)N[C@@H](CO)C(=O)N1CCC[C@H]1C(=O)N[C@@H](CCC(N)=O)C(=O)O)[C@@H](C)CC)[C@@H](C)CC)[C@@H](C)O [HSV 38],,,,,,,,,,,,,,,,,,,,8,
CC[C@H](C)[C@H](NC(=O)[C@H](CCCCN)NC(=O)[C@H](CC(C)C)NC(=O)[C@H](CO)NC(=O)[C@H](Cc1ccc(O)cc1)NC(=O)[C@@H](NC(=O)[C@H](C)NC(=O)[C@@H](NC(=O)[C@@H](NC(=O)[C@H](CCCNC(=N)N)NC(=O)[C@@H](N)CCC(N)=O)[C@@H](C)O)C(C)C)C(C)C)C(=O)N[C@@H](C)C(=O)NCC(=O)N[C@@H](Cc1c[nH]c2ccccc12)C(=O)N[C@@H](Cc1c[nH]cn1)C(=O)NCC(=O)N1CCC[C@H]1C(=O)N[C@@H](CCCCN)C(=O)N[C@@H](C)C(=O)N1CCC[C@H]1C(=O)N[C@@H](Cc1ccc(O)cc1)C(=O)N[C@H](C(=O)N[C@@H](CO)C(=O)N[C@H](C(=O)N[C@@H](CC(C)C)C(=O)N[C@@H](CC(C)C)C(=O)N1CCC[C@H]1C(=O)N1CCC[C@H]1C(=O)N[C@@H](CCC(=O)O)C(=O)N[C@@H](CC(C)C)C(=O)O)[C@@H](C)O)[C@@H](C)O [HSV 40],1160,1160,2390,2390,9920,9920,20,39,39,1590,2,> 100000,> 100000,1160,,1360,1360,7210,7210,4,
CC[C@H](C)[C@H](NC(=O)[C@H](CCCCN)NC(=O)[C@@H](NC(=O)[C@H](CC(C)C)NC(=O)[C@H](CCCNC(=N)N)NC(=O)[C@H](CC(C)C)NC(=O)[C@H](Cc1ccc(O)cc1)NC(=O)[C@@H](NC(=O)CNC(=O)[C@H](C)NC(=O)[C@@H](NC(=O)[C@H](CCC(=O)O)NC(=O)[C@H](Cc1ccccc1)NC(=O)[C@H](C)NC(=O)[C@@H]1CCCN1C(=O)[C@H](C)NC(=O)[C@H](Cc1c[nH]cn1)NC(=O)[C@H](CCSC)NC(=O)[C@H](CC(C)C)NC(=O)[C@H](Cc1ccccc1)NC(=O)CNC(=O)[C@H](CC(C)C)NC(=O)[C@H](CC(N)=O)NC(=O)[C@H](CC(=O)O)NC(=O)[C@@H](N)CCC(=O)O)[C@@H](C)O)[C@@H](C)O)C(C)C)C(=O)N[C@@H](CC(N)=O)C(=O)N[C@@H](CC(=O)O)C(=O)N[C@@H](Cc1c[nH]c2ccccc12)C(=O)N[C@H](C(=O)N[C@@H](CCC(=O)O)C(=O)N[C@H](C(=O)N[C@H](C(=O)N[C@@H](CCC(N)=O)C(=O)N[C@@H](Cc1ccccc1)C(=O)O)[C@@H](C)O)[C@@H](C)CC)[C@@H](C)O [HSV 34],,,,10200,,632,316,,175,> 100000,35,,2020,743,85,,115,,164,,IC50 ([1]; IC50 DR1): 40 nM
